# What was measured:
# Assay in all cases: Broth microdilution antifungal susceptibility test (NCCLS M27A based), MIC
# Type in all cases: cell-based
# Details in all cases: quality control range for control compounds, 35° C., 48 hours
# [1] = test system: Aspergillus nidulans, e.g., NRRL 194 (ATCC 38163)
# Text: (§1) Non-limiting examples of such procedures test the candidate inhibitor compounds for antifungal activity against a panel of three strains: C. albicans, S. cerevisiae , and A. nidulans. One such procedure is based on the NCCLS M27A method (The National Committee for Clinical Laboratory Standards, Reference Method for Broth Microdilution Antifungal Susceptibility Testing of Yeasts; approved standard, 1997) to measure minimum inhibitory concentrations (MICs) and minimum fungicidal concentrations (MFCs). An overview of this of this protocol follows.
# 3. RPMI-1640: 10.4 g powdered media (Sigma R-6504, w/ glutamine & w/o bicarbonate); 2.0 g NaHCO3 (Sigma S-6297); 34.53 g MOPS buffer (Sigma M-6270). Dissolve powdered media and NaHCO3 in 900 ml distilled water. Add MOPS and stir until dissolved. Adjust pH to 7.0 using 1N NaOH. […]
# 2. […] The turbidity of the solution is determined by measuring the absorbance in a spectrophotometer (Shimadzu UV-1201S UV-VIS Spectrophotometer) set at 600 nm. An absorbance value between 0.1 and 0.4 is required for an accurate reading. […]
# (§2) Stock solutions of control compounds (1.6 mg/ml, Amphotericin B or Itraconazole) are initially diluted in medium to a concentration of 32 ug/ml while stock solutions of test compounds (typically 12.8 mg/ml) are diluted to 256 ug/ml. […] If a stock solution of a test compound is not at 12.8 mg/ml, the appropriate dilution must be calculated. […]
# [2] = test system: Saccharomyces cerevisiae, e.g., CTY552
# Text: as §1
# (§3) 3. RPMI-1640: 10.4 g powdered media (Sigma R-6504, w/ glutamine & w/o bicarbonate); 2.0 g NaHCO3 (Sigma S-6297); 34.53 g MOPS buffer (Sigma M-6270). Dissolve powdered media and NaHCO3 in 900 ml distilled water. Add MOPS and stir until dissolved. Adjust pH to 7.0 using 1N NaOH. Bring final volume to 1 liter, filter sterilize, and store at 4° C.
# (§4) 1. Yeasts: Yeasts (Saccharonyces cerevisiae and Candida albicans) are cultured on Sabouraud dextrose agar (SDA) plates in a 35° C. incubator. Strains on SDA plates are stored at 4° C. and used as working stock cultures. Working stock plates are prepared once a month from frozen stocks of cells. Inoculum for susceptibility testing is prepared from fresh 24 hour cultures. 5-10 colonies are scraped from the plate and suspended in three milliliters of sterile 0.85% saline (8.5 g/liter NaCl). The cell density of the solution is determined by measuring the absorbance in a spectrophotometer (Shimadzu UV-1201S UV-VIS Spectrophotometer) set at 600 nm. An absorbance value between 0.1 and 0.4 is required for an accurate reading. […]
# as §2
# [3] = test system: Candida albicans, e.g., ATCC 10231
# Text: as §1, §3, §4, §2
SMILES,Acceptable MIC range values [1],Acceptable MIC range values [2],Acceptable MIC range values [3]
"C[C@@H]1[C@H](O)[C@@H](C)/C=C/C=C/C=C/C=C/C=C/C=C/C=C/[C@H](O[C@@H]2O[C@H](C)[C@@H](O)[C@H](N)[C@@H]2O)C[C@@H]2O[C@](O)(C[C@@H](O)C[C@@H](O)[C@H](O)CC[C@@H](O)C[C@@H](O)CC(=O)O[C@H]1C)C[C@H](O)[C@H]2C(=O)O [Am B, Amphotericin B]",0.5 to 2.0 µg/mL,0.25 to 1.0 µg/mL,0.25 to 1.0 µg/mL
CCC(C)n1ncn(-c2ccc(N3CCN(c4ccc(OCC5COC(Cn6cncn6)(c6ccc(Cl)cc6Cl)O5)cc4)CC3)cc2)c1=O (centres unmarked) [Itraconazole],0.25 to 1.0 µg/mL,–,0.25 to 1.0 µg/mL

# From patent publication US20030027243A1, “Antifungal compounds and methods of use” (Anadys Pharmaceuticals, Inc., priority 2000, published 2003)
